Values of other authors, collected in patent US20050065133A1, “Pharmaceutical compositions and methods comprising combinations of 2-alkylidene-19-nor-vitamin D derivatives and an EP2 or EP4 selective agonist” (Pfizer Inc, priority 2003, published 2005).
Where two headings read alike, the source gives them in different places.

Experiments:
[1] = tested on: Male Holtzman strain weanling rats; conditions: single intrajugular injection, 650 pmol, 24 h later, mean ± SEM
[2] = tested on: Male weanling rats; conditions: for Serum Calcium (mg/100 ml): intraperitoneal, vitamin D-deficient low-calcium diet, 24 h after last dose, mean ± SEM
[3] = tested on: HL-60 cells

SMILES | Serum Calcium (mg/100 ml) [1] [mg/100 ml] | Serum Calcium (mg/100 ml) ([2]; 130 pmol/day/7 days) | Serum Calcium (mg/100 ml) ([2]; 260 pmol/day/7 days) | selectivity for bone calcium mobilization over intestinal calcium transport, in words ([2]; chronic 7-day dosing) | bone calcium mobilization activity relative to 1,25-(OH)2D3 ([2]; chronic 7-day dosing, stated as likely) | bone calcium mobilization, in words ([2]; given for 7 days in a chronic mode, 130 and 260 pmol/day) | inducing differentiation of HL-60 cells to the monocyte, in words [3] | Serum Calcium (mg/100 ml) ([2]; 260 pmol/day/7 days, listed as 2-methylene-19-nor-20S-1,25-(OH)2D3)
C=C1/C(=C\C=C2/CCC[C@]3(C)[C@@H]([C@H](C)CCCC(C)(C)O)CC[C@@H]23)C[C@@H](O)C[C@@H]1O [1,25-(OH)2D3, 1,25-dihydroxyvitamin D3, reference compound] | 5.7 ± 0.2 | 13.8 | 7.2 ± 0.5 | – | – | – | – | –
C=C1[C@H](O)CC(=C/C=C2\CCC[C@]3(C)[C@@H]([C@H](C)CCCC(C)(C)O)CC[C@@H]23)C[C@H]1O [2-Methylene-19-Nor-1,25-(OH)2D3, 1α,25-dihydroxy-2-methylene-19-nor-vitamin D3] | 6.4 ± 0.1 | 9.9 ± 0.2 | 9.6 ± 0.3 | selective for the mobilization of calcium from bone | 10-100 times | extremely strong | activity similar to 1,25-(OH)2D3 | –
C=C1[C@H](O)CC(=C/C=C2\CCC[C@]3(C)[C@@H]([C@@H](C)CCCC(C)(C)O)CC[C@@H]23)C[C@H]1O [2-Methylene-19-Nor-20S-1,25-(OH)2D3, (20S)-1α,25-dihydroxy-2-methylene-19-nor-vitamin D3] | 8.0 ± 0.1 | 13.8 ± 0.5 | 14.4 ± 0.6 | selective for the mobilization of calcium from bone | – | – | extremely potent | 14
